BindingDB's records for patent US11945784 (Cornell University, 2024)

Target: Serine/threonine-protein kinase/endoribonuclease IRE1 (Homo sapiens, UniProt O75460)
Assay: In Vitro FRET Assay
Procedure: In vitro FRET assay was performed to evaluate the ability of select compounds to inhibit IRE1, the results of which are summarized in Table 3. To perform the in vitro FRET assay, 1× complete assay buffer (CAB; […], 50 mM sodium citrate pH 7.15, 1 mM magnesium acetate, 0.02% tween 20) was used to dilute SignalChem IRE1α protein to a final concentration of 2 nM. Selected compounds were serially diluted with DMSO in a non-binding black 384-well plate for a total of 15 ul in each well. 2 ul of the serially diluted compound or DMSO control were then added to new wells containing 98 ul of 1×CAB, for a total volume of 100 ul, 10 ul of which were then transferred to wells of a new plate. 5 ul of the diluted IRE1α was then added to each well. 5 ul of a […] was then added to each well. Fluorescence was then read over 30 minutes in kinetic mode (485/515 nm).Two RNA probes were used, XBP1 wildtype (SEQ ID NO: 2) which is able to be spliced by active IRE1α or XBP1 mutant (SEQ ID NO: 3) which is unable to be spliced. Each probe contained a 5′ 6-FAM modification and a 3′ IOWA Black FQ modification.A second FRET assay was performed to assess ATP-mediated inhibition. In this case, compounds and IRE1α were prepared and combined as discussed above, with the addition of ATP up to 1 mM final concentration. This mixture was incubated at room temperature for 60 minutes and then 5 ul of 400 nM XBP1 wildtype or mutant RNA probe was added. Plates were then read over 30 minutes in kinetic mode (485/515 nm) and rate of fluorescence increase calculated for different compound dilutions to determine IC50.

Serine/threonine-protein kinase/endoribonuclease IRE1, sequence (O75460 whole entry): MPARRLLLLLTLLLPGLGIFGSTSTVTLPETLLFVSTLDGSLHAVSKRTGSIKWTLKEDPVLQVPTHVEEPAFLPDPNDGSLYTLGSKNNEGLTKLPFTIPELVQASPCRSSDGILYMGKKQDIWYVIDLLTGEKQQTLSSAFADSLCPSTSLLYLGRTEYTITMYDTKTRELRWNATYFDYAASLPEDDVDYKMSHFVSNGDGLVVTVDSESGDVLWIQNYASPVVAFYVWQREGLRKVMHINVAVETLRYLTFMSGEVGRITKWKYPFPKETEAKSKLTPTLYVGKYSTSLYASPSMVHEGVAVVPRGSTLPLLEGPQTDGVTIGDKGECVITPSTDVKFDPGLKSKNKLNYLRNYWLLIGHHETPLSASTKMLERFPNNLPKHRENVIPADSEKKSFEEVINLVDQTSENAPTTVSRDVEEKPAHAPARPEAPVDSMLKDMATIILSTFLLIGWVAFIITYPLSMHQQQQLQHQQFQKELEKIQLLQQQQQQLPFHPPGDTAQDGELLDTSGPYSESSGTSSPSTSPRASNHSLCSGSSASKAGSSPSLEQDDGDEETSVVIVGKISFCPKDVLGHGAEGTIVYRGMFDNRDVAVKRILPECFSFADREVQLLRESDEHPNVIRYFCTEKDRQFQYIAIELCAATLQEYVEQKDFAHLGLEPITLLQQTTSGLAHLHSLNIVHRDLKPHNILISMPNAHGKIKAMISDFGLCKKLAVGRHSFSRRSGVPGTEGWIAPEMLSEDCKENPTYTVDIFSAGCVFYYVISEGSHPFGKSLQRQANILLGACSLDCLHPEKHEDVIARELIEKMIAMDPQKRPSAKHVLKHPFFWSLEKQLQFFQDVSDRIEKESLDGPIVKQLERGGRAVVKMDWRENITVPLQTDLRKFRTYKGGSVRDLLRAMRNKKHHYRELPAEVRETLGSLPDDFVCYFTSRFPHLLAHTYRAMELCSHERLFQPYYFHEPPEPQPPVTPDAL

Row | Compound | IC50 [nM]
1 | NC1CCC(Nc2ncc(/C=C/c3ccc(NS(=O)(=O)c4ccccc4Cl)c(F)c3)cn2)CC1 (configuration not stated) [US11945784, Compound 3] | < 1
2 | Cc1nc(NS(=O)(=O)c2cnccc2Cl)ccc1/C=C/c1cnc(NC2CCC(N(C)C)CC2)nc1 (configuration not stated) [US11945784, Compound 62] | < 1
3 | COc1cc(NS(=O)(=O)c2cnccc2Cl)ccc1/C=C/c1cnc(NC2CCC(N(C)C)CC2)nc1 (configuration not stated) [US11945784, Compound 65] | < 1
4 | CN(C)C1CCC(Nc2ncc(/C=C/c3ccc(NS(=O)(=O)c4ccc(F)cc4Cl)nc3)cn2)CC1 (configuration not stated) [US11945784, Compound 61] | < 1
5 | CN(C)C1CCC(Nc2ncc(/C=C/c3ccc(NS(=O)(=O)c4cccc(Cl)c4Cl)nc3)cn2)CC1 (configuration not stated) [US11945784, Compound 63] | < 1
6 | NC1CCC(Nc2ncc(/C=C/c3ccc(NS(=O)(=O)c4ccccc4Cl)nn3)cn2)CC1 (configuration not stated) [US11945784, Compound 2] | < 1
7 | COc1c(/C=C/c2cnc(NC3CCC(N(C)C)CC3)nc2)ccc(NS(=O)(=O)c2ccccc2Cl)c1F (configuration not stated) [US11945784, Compound 66] | < 1
8 | CN(C)C1CCC(Nc2ncc(/C=C/c3ccc(NS(=O)(=O)c4ccccc4Cl)nn3)cn2)CC1 (configuration not stated) [US11945784, Compound 52] | < 1
9 | CN(C)C1CCC(Nc2ncc(/C=C/c3ccc(NS(=O)(=O)c4cccc(F)c4Cl)nc3)cn2)CC1 (configuration not stated) [US11945784, Compound 68] | < 1
10 | Cc1nc(NS(=O)(=O)c2ccccc2Cl)c(F)cc1/C=C/c1cnc(NC2CCC(N)CC2)nc1 (configuration not stated) [US11945784, Compound 58] | < 1
11 | COc1cc(NS(=O)(=O)c2ccccc2Cl)c(F)cc1/C=C/c1cnc(NC2CCC(N(C)C)CC2)nc1 (configuration not stated) [US11945784, Compound 67] | < 1

Now from value to molecule:

Row | IC50 [nM] | Compound
12 | < 1 | COc1nc(NS(=O)(=O)c2ccccc2Cl)ccc1/C=C/c1cnc(NC2CCC(N3CCOCC3)CC2)nc1 (configuration not stated) [US11945784, Compound 57]
13 | < 1 | CNC1CCC(Nc2ncc(/C=C/c3cc(F)c(NS(=O)(=O)c4ccccc4Cl)nc3OC)cn2)CC1 (configuration not stated) [US11945784, Compound 59]
14 | < 1 | COc1nc(NS(=O)(=O)c2ccccc2Cl)ccc1/C=C/c1cnc(NC2CCC(N3CCCCC3)CC2)nc1 (configuration not stated) [US11945784, Compound 60]
15 | < 1 | COc1nc(NS(=O)(=O)c2cnccc2Cl)ccc1/C=C/c1cnc(NC2CCC(N(C)C)CC2)nc1 (configuration not stated) [US11945784, Compound 56]
16 | < 1 | COc1nc(NS(=O)(=O)c2ccccc2Cl)ccc1/C=C/c1cnc(NC2CCC(N3CCSCC3)CC2)nc1 (configuration not stated) [US11945784, Compound 64]
17 | < 1 | COc1nc(NS(=O)(=O)c2ccccc2Cl)c(F)cc1/C=C/c1cnc(NC2CCC(N)CC2)nc1 (configuration not stated) [US11945784, Compound 54]
